From patent publication US6906205B2, “Spiro and dispiro 1,2,4-trioxolane antimalarials” (Medicines for Malaria Venture MMV, priority 2002, dated 2005)
Values after ≈ are worked out from the molar mass of the structure shown. Where two headings read alike, the source gives them in different places.

What was measured:
[1] = system: ANKA strain of P. berghei; test: single dose STI in vivo screen in infected mice; parameters: species or system Plasmodium berghei
Outline: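 Groups of 3-5 Moro SPF or NMRI mice infected with the ANKA strain of P. berghei received a single dose of trioxolane on day one post-infection. The compound was given in 3% ethanol and 7% Tween 80 or in SSV (0.5% w/v CMC, 0.5% v/v benzyl alcohol, 0.4% v/v Tween 80, 0.9% w/v sodium chloride in water). Antimalarial activity was scored as percent reduction in parasitemia on day three and as survival time versus untreated controls. Survival to day 30 counted as cure.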

[2] = system: parasitemia (malaria infection); test: onset of action and recrudescence experiments; type: in vivo
Procedure: The onset of drug action was determined after a single fixed dose of 100 mg/kg (SSV vehicle) po to groups of five animals on day +3 post-infection (day 0).

[3] = system: ANKA strain of Plasmodium berghei; test: single dose ED50/ED90/ED99 determinations in infected mice; type: in vivo
Outline: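 Mice (Moro SPF or NMRI, n=3 per group) infected with P. berghei ANKA received a single dose on day 1 post-infection, vehicle 0.5% CMC/0.5% benzyl alcohol/0.4% Tween 80/0.9% NaCl in water. Read-out is percent reduction in parasitemia on day 3; ED values by nonlinear fitting.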

P. berghei ANKA strain [4] = test: treatment: 3x10 mg/kg p.o. divided dose vs 1x30 mg/kg po single dose in infected mice; type: in vivo, Plasmodium berghei; details: for Activity (%) p.o. SSV: percent reduction of parasitemia day 4
Procedure: Moro NMRI male mice (Fü Albino specific pathogen free) weighing 18±2 g were infected intravenously (i.v.) with 2×10^7 P. berghei ANKA strain-infected erythrocytes from donor mice on day 0 of the experiment. From donor mice with circa 30% parasitemia, heparinized blood was taken and diluted in physiological saline to 10^8 parasitized erythrocytes per ml. An aliquot (0.2 ml) of this suspension was injected i.v. into experimental and control groups of mice. […] Throughout the experiments, mice were kept in groups of three or five animals in Makrolon type II cages in an air-conditioned animal room at 22 to 23° C.
They were administered per os (p.o.) in a total volume of 0.01 ml per gram of mouse. The activity of the compound was determined by a variety of methods outlined in subsequent sections. Survival time was also recorded, and survival to day 30 post-infection was considered to be a cure.
The first experiment conducted consisted of administration of a divided 3×10 mg/kg p.o. dose administered on days 1, 2, and 3 post-infection vs. a single 1×30 mg/kg po dose administered on day 1 post-infection. On day 4 post-infection, blood smears of all animals were prepared and stained with Giemsa. […] Compounds were administered orally in the SSV vehicle.

P. berghei ANKA strain [5] = test: treatment: 3x3 mg/kg and 3x1 mg/kg po divided doses in infected mice; type: in vivo, Plasmodium berghei; details: for Activity (%) p.o. SSV: percent reduction of parasitemia day 4
Outline: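 NMRI mice infected i.v. with 2×10^7 P. berghei ANKA-parasitized erythrocytes on day 0, then dosed orally in SSV vehicle at 3×3 or 3×1 mg/kg on days 1–3. Day-4 Giemsa smears gave percent parasitemia reduction versus untreated controls; survival to day 30 counted as cure.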

P. berghei ANKA strain [6] = test: prophylactic activity, single 100 mg/kg po dose before infection; type: in vivo, Plasmodium berghei; details: for Prophylactic Activity (%): reduction of parasitemia day 3 post-infection
Procedure: Moro NMRI male mice (Fü Albino specific pathogen free) weighing 18±2 g were infected intravenously (i.v.) with 2×10^7 P. berghei ANKA strain-infected erythrocytes from donor mice on day 0 of the experiment. From donor mice with circa 30% parasitemia, heparinized blood was taken and diluted in physiological saline to 10^8 parasitized erythrocytes per ml. An aliquot (0.2 ml) of this suspension was injected i.v. into experimental and control groups of mice. In untreated control mice, parasitemia rose regularly to 40 to 50% by day 3 post-infection and 70 to 80% by day 4 post-infection. The mice died between days 5 and 7 post-infection. Throughout the experiments, mice were kept in groups of three or five animals in Makrolon type II cages in an air-conditioned animal room at 22 to 23° C. A diet with p-aminobenzoic acid (PABA) of 45 mg (NAFAG FUTTER© food N^o 9009 PAB-45) per kg of body weight, and tap water is available ad libitum.
OZ compounds were prepared at an appropriate concentration, either as a solution or a suspension containing SSV (0.5% w/v CMC, 0.5% v/v benzyl alcohol, 0.4% v/v Tween 80, and 0.9% w/v sodium chloride in water). They were administered per os (p.o.) in a total volume of 0.01 ml per gram of mouse. The activity of the compound was determined by a variety of methods outlined in subsequent sections. Survival time was also recorded, and survival to day 30 post-infection was considered to be a cure.
Prophylactic activities of the compounds were compared after administering po single dose of 100 mg/kg to different groups of five animals at various times before infection. All groups including an untreated control group, were then infected at the same time. Parasitemia was determined for each animal on day 3 post-infection, and percent of reduction of the level of parasitemia compared to levels for animals given no drug is determined.

[7] = system: P. falciparum NF54 strain (sensitive to standard antimalarials); test: semiautomated microdilution assay, [3H]-hypoxanthine incorporation, NF54 strain; type: cell-based, Plasmodium falciparum; details: NF54 strain, 72 h incubation
Outline: (§1)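 Compounds were tested against intraerythrocytic parasites taken from asynchronous stock cultures, using semiautomated microdilution. IC50 values were estimated by logit regression analysis.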

[8] = system: P. falciparum K1 strain (Thailand resistant to chloroquine); test: semiautomated microdilution assay, [3H]-hypoxanthine incorporation, K1 strain; type: cell-based, Plasmodium falciparum; details: K1 strain, 72 h incubation
Outline: as §1

Schistosoma japonicum = test: effect in mice infected with Schistosoma japonicum; type: in vivo; details: for MFWB/x ± SD (mean female worm burden): control 11.6 ± 2.4; for MTWB/x ± SD (mean total worm burden): control 26.6 ± 4.2
[9] = system: Schistosoma mansoni adult schistosomes (49-day-old); test: effect on adult schistosomes (49-day-old) in mice; type: in vivo
Procedure: Mice were infected with 100 Schistosoma mansoni cercariae […]. Each group was treated per os with OZ compounds at single doses of 200, 400, and 600 mg/kg. […] All groups were killed 4 weeks after treatment and the liver and intestine were removed and separated. The liver and intestine were compressed and alive male and female worms could be seen and counted.

[10] = percent reduction in parasitemia day 3 post-infection, single 3 mg/kg po in SSV
[11] = single 100 mg/kg po (SSV) on day +3 post-infection, recrudescence = >5% parasitemia, followed up to 60 days, (n/5) = animals
[12] = single dose po in SSV, mice, percent reduction in parasitemia on day three post-infection
[13] = 3 × 10 mg/kg days 1, 2, 3 post-infection
[14] = 3 × 1 mg/kg days 1, 2, 3 post-infection
[15] = 3 × 3 mg/kg days 1, 2, 3 post-infection
[16] = single 100 mg/kg po 24 h before infection
[17] = age of worm 7 days, 200 mg/kg x 1
[18] = age of worm 35 days, 200 mg/kg x 1
[19] = age of worm 35 days, 400 mg/kg x 1

## C[C@H]1[C@H](OC(=O)CCC(=O)O)O[C@@H]2O[C@@]3(C)CC[C@H]4[C@H](C)CC[C@@H]1[C@@]24OO3 [AS, artesunate, reference compound]
[1]; [10]
  Activity (%) 3 mg/kg SSV po: 66%
[1]; percent reduction in parasitemia day 3 post-infection, single 10 mg/kg po in SSV
  Activity (%) 10 mg/kg SSV po: 87%
[1]; single 10 mg/kg po in SSV
  Survival (days) 10 mg/kg SSV po: 7.0 days
[2]; [11]
  Time of Recrudescence: 8.6 days
[3]; Plasmodium berghei, po
  ED50: 4.7 mg/kg
[3]; [12]
  ED90: 19 mg/kg
  ED99: 60 mg/kg
P. berghei ANKA strain [4]; 1 × 30 mg/kg single dose day 1 post-infection
  Activity (%) p.o. SSV: 83.83%
P. berghei ANKA strain [4]; [13]
  Survival (days) p.o. SSV: 11 days
  Activity (%) p.o. SSV: 98.62%
P. berghei ANKA strain [4]; 3 × 10 mg/kg, survival to day 30 post-infection = cure, cured/treated mice
  Cures: 0/5
P. berghei ANKA strain [5]; [14]
  Survival (days) p.o. SSV: 6.8 days
  Activity (%) p.o. SSV: 39%
P. berghei ANKA strain [5]; [15]
  Survival (days) p.o. SSV: 9.4 days
  Activity (%) p.o. SSV: 78%
P. berghei ANKA strain [6]; [16]
  Prophylactic Activity (%): 6.28%
P. berghei ANKA strain [6]; single 100 mg/kg po at 0 h
  Prophylactic Activity (%): 92.44%

## OC(c1cc(C(F)(F)F)nc2c(C(F)(F)F)cccc12)C1CCCCN1 (stereo not drawn) [MFQ, mefloquine, reference compound]
[7]; Plasmodium falciparum, read-out: IC50 (ng/ml) NF54
  IC50: 5 ng/mL (≈ 0.0132 µM)
[1]; [10]
  Activity (%) 3 mg/kg SSV po: 9%
[1]; single 3 mg/kg po in SSV
  Survival (days) 3 mg/kg SSV po: 6.3 days
[1]; single 10 mg/kg po in SSV
  Survival (days) 10 mg/kg SSV po: 17 days
[2]; [11]
  Time of Recrudescence: 28.0 days
[2]; single 100 mg/kg po (SSV), parasitemia monitored 12, 24, 48 h after treatment
  onset of action (decline in parasitemia): slow onset of action
[3]; Plasmodium berghei, single dose po in SSV, mice, percent reduction in parasitemia on day three post-infection, read-out: ED50
  ED50: 4 mg/kg
[3]; [12]
  ED90: 5.4 mg/kg
  ED99: 6.8 mg/kg
P. berghei ANKA strain [5]; [14]
  Survival (days) p.o. SSV: 6.2 days
  Activity (%) p.o. SSV: 2%
P. berghei ANKA strain [5]; [15]
  Survival (days) p.o. SSV: 12 days
  Activity (%) p.o. SSV: 98%
P. berghei ANKA strain [6]; [16]
  Prophylactic Activity (%): 100%
P. berghei ANKA strain [6]; single 100 mg/kg po 48 h before infection
  Prophylactic Activity (%): 99.92%
P. berghei ANKA strain [6]; single 100 mg/kg po 72 h before infection
  Prophylactic Activity (%): 99.97%
P. berghei ANKA strain [6]; single 100 mg/kg po at 0 h
  Prophylactic Activity (%): 100%
P. berghei ANKA strain [6]; single 100 mg/kg po before infection
  duration of prophylactic protection: 3 days

## Cc1ccc(S(=O)(=O)O)cc1.NC[C@H]1CC[C@]2(CC1)OOC1(O2)C2CC3CC(C2)CC1C3 (stereo partly drawn) [OZ207]
[8]
  IC50 (ng/ml) K1: 0.33 ng/mL
[7]
  IC50 (ng/ml) NF54: 0.57 ng/mL
[1]; percent reduction in parasitemia day 3 post-infection, single 10 mg/kg po in 3% ethanol and 7% Tween 80, mice
  Activity (%) po: 99.96%
[1]; percent reduction in parasitemia day 3 post-infection, single 10 mg/kg sc in 3% ethanol and 7% Tween 80, mice
  Activity (%) sc: 99.98%
[1]; percent reduction in parasitemia day 3 post-infection, single po dose in standard suspending vehicle (SSV), mice
  Activity (%) SSVpo: 99.98%
[1]; single 10 mg/kg po in 3% ethanol and 7% Tween 80, untreated control 5.6 ± 0.3
  Survival (days) po: 9.3 days
[1]; single 10 mg/kg sc in 3% ethanol and 7% Tween 80, untreated control 5.6 ± 0.3
  Survival (days) sc: 11.3 days
[1]; single po dose in SSV, untreated control 5.6 ± 0.3
  Survival (days) SSVpo: 12.0 days
[2]; [11]
  Time of Recrudescence (days): no recrudescence
Schistosoma japonicum; [17]
  Mice without ♀ worm: 0/8
  MFWB/x ± SD (mean female worm burden): 2.1 ± 1.0
  MTWB/x ± SD (mean total worm burden): 5.4 ± 2.4
Schistosoma japonicum; [18]
  FWRR/% (female worm reduction rate): 95%
  Mice without ♀ worm: 4/7
  WRR/% (worm reduction rate): 66%
  MFWB/x ± SD (mean female worm burden): 0.6 ± 0.7
  MTWB/x ± SD (mean total worm burden): 9.1 ± 3.9
Schistosoma japonicum; [19]
  FWRR/% (female worm reduction rate): 94%
  Mice without ♀ worm: 4/6
  MFWB/x ± SD (mean female worm burden): 0.7 ± 1.2
  MTWB/x ± SD (mean total worm burden): 4.3 ± 1.2
[9]; 600 mg/kg per os, infected mice
  Tox (mice): Tox: ++2/5
[9]; single 200 mg/kg per os
  % reduction of adult worms growth at day 49 after per os application of 200 mg/kg, TWR (%): 32%
  adult worms at day 49, per os 200 mg/kg, DEAD WORM (%): 17%
[9]; single 400 mg/kg per os
  % reduction of adult worms growth at day 49 after per os application of 400 mg/kg, TWR (%): 35%
  adult worms at day 49, per os 400 mg/kg, DEAD WORM (%): 21%
[9]; single 600 mg/kg per os
  % reduction of adult worms growth at day 49 after per os application of 600 mg/kg, TWR (%): 11%
  adult worms at day 49, per os 600 mg/kg, DEAD WORM (%): 24%
[3]; [12]
  ED50: 0.37 mg/kg
  ED90: 1.2 mg/kg
  ED99: 3.0 mg/kg
